Assay results: ChEMBL document CHEMBL4118070, “Synthesis, antimicrobial, antiquorum-sensing and antitumor activities of new benzimidazole analogs” (Eur J Med Chem, 2017)
≈ marks a conversion by molar mass, not a printed value. Calls of active or inactive are those of the source. No cut-off for these calls is given here.

Key:
HCT-116 = experiment: Cytotoxicity against human HCT116 cells assessed as decrease in cell viability after 48 hrs by MTT assay; format: functional, cell-based; conditions: HCT-116, 48 h
HepG2 = experiment: Cytotoxicity against human HepG2 cells assessed as decrease in cell viability after 48 hrs by MTT assay; format: functional, cell-based; conditions: HepG2, 48 h
MCF7 = experiment: Cytotoxicity against human MCF7 cells assessed as decrease in cell viability after 48 hrs by MTT assay; format: functional, cell-based; conditions: MCF7, 48 h
[1] = test system: Chromobacterium violaceum; experiment: Inhibition of quorum sensing system in Chromobacterium violaceum ATCC 12472 assessed as diameter of violacein pigment inhibition at 5 mg/ml after 48 hrs
Escherichia coli = experiment: Antibacterial activity against Escherichia coli ATCC 12435 after 24 hrs by two-fold serial dilution method; format: functional; conditions: ATCC 12435, 24 h
Candida albicans = experiment: Antifungal activity against Candida albicans after 48 hrs by two-fold serial dilution method; format: functional
Bacillus cereus = experiment: Antibacterial activity against Bacillus cereus UW 85 after 24 hrs by two-fold serial dilution method; format: functional; conditions: UW 85, 24 h
Aspergillus fumigatus = experiment: Antifungal activity against Aspergillus fumigatus 293 after 48 hrs by two-fold serial dilution method; format: functional; conditions: Af293, 48 h
Staphylococcus aureus = experiment: Antibacterial activity against Staphylococcus aureus ATCC 29213 after 24 hrs by two-fold serial dilution method; format: functional; conditions: ATCC 29213, 24 h
[2] = Displacement of methyl green from DNA (unknown origin) incubated in dark for 24 hrs by colorimetric method
Ehrlich [3] = experiment: Antitumor activity against mouse EAC allografted in Swiss mouse assessed as tumor volume at 0.5 mg administered 9 days (reference value: 9.85 ml); format: functional
Ehrlich [4] = experiment: Antitumor activity against mouse EAC allografted in Swiss mouse assessed as decrease in viable tumor cell count at 0.5 mg administered 9 days by trypan blue staining method; format: functional
Ehrlich [5] = experiment: Antitumor activity against mouse EAC allografted in Swiss mouse assessed as mean mouse survival time at 0.5 mg administered 9 days (reference value: 14.5 days); format: functional
WI-38 = experiment: Cytotoxicity against human W138 cells assessed as decrease in cell viability after 48 hrs by MTT assay; format: cell-based; conditions: WI-38, 48 h
Ehrlich [6] = experiment: Antitumor activity against mouse EAC allografted in Swiss mouse assessed as RBC count in blood at 0.5 mg administered 9 days (reference value: 3.69 10^6/mm3); format: functional
Ehrlich [7] = experiment: Antitumor activity against mouse EAC allografted in Swiss mouse assessed as WBC count in blood at 0.5 mg administered 9 days (reference value: 23.96 10^3/mm3); format: functional
Ehrlich [8] = experiment: Antitumor activity against mouse EAC allografted in Swiss mouse assessed as hemoglobin count in blood at 0.5 mg administered 9 days (reference value: 8.73 g/dl); format: functional
Ehrlich [9] = experiment: Antitumor activity against mouse EAC allografted in Swiss mouse assessed as increase in mouse life span at 0.5 mg administered 9 days relative to control; format: functional

Row | SMILES | IC50 (HCT-116) [µM] | IC50 (HepG2) [µM] | IC50 (MCF7) [µM] | Activity [1] [mm] | MIC (Escherichia coli) | MIC (Candida albicans) [µM] | MIC (Bacillus cereus) | MIC (Aspergillus fumigatus) | MIC (Staphylococcus aureus) | IC50 [2] [µM] | Activity (Ehrlich [3]) [mL] | Activity (Ehrlich [4]) | MST (Ehrlich [5]) [days] | IC50 (WI-38) [µM] | Activity (Ehrlich [6]) [×10⁶ /mm3] | Activity (Ehrlich [7]) [×10³ /mm3] | Activity (Ehrlich [8]) [g/dL] | ILS (Ehrlich [9]) [%]
1 | CCOC(=O)CSCc1nc2cc([N+](=O)[O-])ccc2[nH]1 | > 100 | > 100 | > 100 | < 2 | 4230 µM | 2120 (≈ 625 µg/mL) | 2120 µM | 2120 µM | 2120 µM |  |  |  |  |  |  |  |  | 
2 | Oc1cc(O)c2c(c1)O[C@H](c1ccc(O)c(O)c1)[C@@H](O)C2 |  |  |  | 2 |  |  |  |  |  |  |  |  |  |  |  |  |  | 
3 | NNC(=O)CSCc1nc2cc([N+](=O)[O-])ccc2[nH]1 | 5.33 | 18.6 | 13.2 | < 2 | > 2500 µg/mL | 1110 (≈ 312 µg/mL) | > 2500 µg/mL | 4440 µM | > 2500 µg/mL | 87.2 |  |  |  |  |  |  |  | 
4 | O=[N+]([O-])c1ccc2[nH]c(CSCc3nc4cc([N+](=O)[O-])ccc4[nH]3)nc2c1 | 2.41 | 2.25 | 1.74 | 11 | 1630 µM | 406 (≈ 156 µg/mL) | 813 µM | 406 µM | 406 µM | 37.1 | 2.22 | Active | 47 | 25.4 | 5.45 | 7.23 | 13.18 | 224.14
5 | CC1=NN(C(=O)CSCc2nc3cc([N+](=O)[O-])ccc3[nH]2)C(=O)C1 | 5.41 | 7.33 | 8.07 | < 2 | > 2500 µg/mL | 7200 (≈ 2500 µg/mL) | > 2500 µg/mL | > 2500 µg/mL | > 2500 µg/mL |  |  |  |  |  |  |  |  | 
6 | O=C(CSCc1nc2cc([N+](=O)[O-])ccc2[nH]1)c1ccccc1 | 12.3 | 16.1 | 18.6 | < 2 | > 2500 µg/mL | 1910 (≈ 625 µg/mL) | > 2500 µg/mL | 7640 µM | 3820 µM |  |  |  |  |  |  |  |  | 
7 | N#CCSCc1nc2cc([N+](=O)[O-])ccc2[nH]1 | 28.2 | 30.6 | 27.4 | < 2 | > 2500 µg/mL | 5040 (≈ 1250 µg/mL) | 5040 µM | 5040 µM | > 2500 µg/mL |  |  |  |  |  |  |  |  | 
8 | O=C(CSCc1nc2cc([N+](=O)[O-])ccc2[nH]1)NNC(=S)Nc1ccccc1 | 29.2 | > 100 | > 100 | < 2 | > 2500 µg/mL | 375 (≈ 156 µg/mL) | > 2500 µg/mL | 750 µM | > 2500 µg/mL | 52.3 |  |  |  |  |  |  |  | 
9 | CCOC(=O)c1c(NC(=O)CSCc2nc3cc([N+](=O)[O-])ccc3[nH]2)sc2c1CCCCC2 | 7.51 | 7.39 | 10.3 | < 2 | 2560 µM | 1280 (≈ 625 µg/mL) | 2560 µM | 2560 µM | 2560 µM |  |  |  |  |  |  |  |  | 
10 | O=C(CSCc1nc2cc([N+](=O)[O-])ccc2[nH]1)c1ccc(Br)cc1 | 1.78 | 2.01 | 1.55 | < 2 | > 2500 µg/mL | 385 (≈ 156 µg/mL) | 769 µM | 385 µM | 192 µM | 34.6 | 2.41 | Active | 45.3 | 31.5 | 5.14 | 7.41 | 12.92 | 212.42
11 | O=C(CSCc1nc2cc([N+](=O)[O-])ccc2[nH]1)c1ccc(Cl)cc1 | 2.23 | 2.65 | 2.8 | < 2 | > 2500 µg/mL | 864 (≈ 312 µg/mL) | 6910 µM | 3450 µM | 864 µM | 62.8 | 2.83 | Active | 39.2 | 33.8 | 4.87 | 9.1 | 12.32 | 170.34
12 | O=C(CSCc1nc2cc([N+](=O)[O-])ccc2[nH]1)N/N=C/c1ccc(Cl)cc1 | 15.3 | 56.8 | 13.7 | < 2 | > 2500 µg/mL | 774 (≈ 312 µg/mL) | > 2500 µg/mL | 1550 µM | > 2500 µg/mL |  |  |  |  |  |  |  |  | 
13 | OC(Cn1cncn1)(Cn1cncn1)c1ccc(F)cc1F [FLUCONAZOLE] |  |  |  |  |  | 8160 (≈ 2500 µg/mL) |  | > 2500 µg/mL |  |  |  |  |  |  |  |  |  | 
14 | NC(=O)CSCc1nc2cc([N+](=O)[O-])ccc2[nH]1 | 17.2 | 26.9 | 19.7 | 9 | 587 µM | 147 (≈ 39.1 µg/mL) | 293 µM | 293 µM | 147 µM | 41.3 |  |  |  |  |  |  |  | 
15 | O=c1[nH]cc(F)c(=O)[nH]1 [FLUOROURACIL] | 4 | 5.3 | 4.3 |  |  |  |  |  |  |  | 1.6 |  | 49 | 5.73 | 5.21 | 8.86 | 12.96 | 237.93
16 | NC(=S)NNC(=O)CSCc1nc2cc([N+](=O)[O-])ccc2[nH]1 | 4.71 | 7.05 | 7.53 | 11 | > 2500 µg/mL | 459 (≈ 156 µg/mL) | 3670 µM | 1840 µM | 918 µM | 66.2 |  |  |  |  |  |  |  | 
17 | N#Cc1sc(Nc2ccccc2)nc1NC(=O)CSCc1nc2cc([N+](=O)[O-])ccc2[nH]1 | 8.43 | 9.48 | 11.3 | < 2 | > 2500 µg/mL | 2690 (≈ 1250 µg/mL) | 5370 µM | 5370 µM | 5370 µM |  |  |  |  |  |  |  |  | 
18 | O=[N+]([O-])c1ccc2[nH]c(CSCc3nc4ccccc4[nH]3)nc2c1 | 7.91 | 11.2 | 13.1 | 4 | > 2500 µg/mL | 3680 (≈ 1250 µg/mL) | > 2500 µg/mL | > 2500 µg/mL | 3680 µM |  |  |  |  |  |  |  |  | 
19 | CC1(C)S[C@@H]2[C@H](NC(=O)[C@H](N)c3ccccc3)C(=O)N2[C@H]1C(=O)O [AMPICILLIN] |  |  |  |  | 55.9 µM |  | 3580 µM |  | 894 µM |  |  |  |  |  |  |  |  | 
20 | COc1cccc2c1C(=O)c1c(O)c3c(c(O)c1C2=O)C[C@@](O)(C(=O)CO)C[C@@H]3O[C@H]1C[C@H](N)[C@H](O)[C@H](C)O1 [DOXORUBICIN] |  |  |  |  |  |  |  |  |  | 32.4 |  |  |  |  |  |  |  | 
